How the values were obtained:
lambsquarters [1] = test: Test Example 4: herbicidal effect by soil treatment (Table 19, symbol O); assay type: in vivo, lambsquarters (Chenopodium album); conditions: amount of applied herbicide 320 g/ha
In short: (§1)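 Pre-emergence style soil spray: seeds under ~1.5 cm sterilized diluvial soil received a uniform coat of emulsion diluted to the predetermined herbicide amount. Greenhouse 25–30° C; readout at week three on previously defined criteria.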

barnyard grass [2] = test: Test Example 4: herbicidal effect by soil treatment (Table 19, symbol H); assay type: in vivo, barnyard grass (Echinochloa crus-galli); conditions: amount of applied herbicide 320 g/ha
In short: as §1

blackgrass [3] = test: Test Example 5: herbicidal effect by foliage application, plastic box (Table 20, symbol J); assay type: in vivo, blackgrass (Alopecurus myosuroides); conditions: foliage application, 320 g/ha, three weeks after application
In short: (§2)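 Plants were sown into sterilized diluvial soil under about 1.5 cm cover and kept in a greenhouse at 25° C. to 30° C. Fourteen days on, foliage received an even spray of the diluted emulsion. Herbicidal or crop effect was judged three weeks afterwards.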

Italian ryegrass [4] = test: Test Example 4: herbicidal effect by soil treatment (Table 19, symbol K); assay type: in vivo, Italian ryegrass (Lolium multiflorum); conditions: amount of applied herbicide 320 g/ha
In short: as §1

redroot pigweed [5] = test: Test Example 4: herbicidal effect by soil treatment (Table 19, symbol N); assay type: in vivo, redroot pigweed (Amaranthus retroflexus); conditions: amount of applied herbicide 320 g/ha
In short: as §1

barnyard grass [6] = test: Test Example 3: herbicidal effect by foliage application, Wagner pot (Table 18, symbol H); assay type: in vivo, barnyard grass (Echinochloa crus-galli); conditions: 320 g/ha
In short: (§3)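 Plants were sown in alluvial soil held under 0.1–0.5 cm standing water and grown 14 days in a greenhouse at 25–30 °C. An emulsifiable formulation, water-diluted to the set dose, was then sprayed onto the foliage, and effects were scored three weeks later using previously defined criteria.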

southern crabgrass [7] = test: Test Example 5: herbicidal effect by foliage application, plastic box (Table 20, symbol F); assay type: in vivo, southern crabgrass (Digitaria ciliaris); conditions: foliage application, 320 g/ha, three weeks after application
In short: as §2

false cleavers [8] = test: Test Example 5: herbicidal effect by foliage application, plastic box (Table 20, symbol Q); assay type: in vivo, false cleavers (Galium spurium); conditions: foliage application, 320 g/ha, three weeks after application
In short: as §2

windgrass [9] = test: Test Example 4: herbicidal effect by soil treatment (Table 19, symbol L); assay type: in vivo, windgrass (Apera spica-venti); conditions: amount of applied herbicide 320 g/ha
In short: as §1

southern crabgrass [10] = test: Test Example 4: herbicidal effect by soil treatment (Table 19, symbol F); assay type: in vivo, southern crabgrass (Digitaria ciliaris); conditions: amount of applied herbicide 320 g/ha
In short: as §1

wild oat [11] = test: Test Example 5: herbicidal effect by foliage application, plastic box (Table 20, symbol I); assay type: in vivo, wild oat (Avena fatua); conditions: foliage application, 320 g/ha, three weeks after application
In short: as §2

false cleavers [12] = test: Test Example 4: herbicidal effect by soil treatment (Table 19, symbol Q); assay type: in vivo, false cleavers (Galium spurium); conditions: amount of applied herbicide 320 g/ha
In short: as §1

chickweed [13] = test: Test Example 4: herbicidal effect by soil treatment (Table 19, symbol P); assay type: in vivo, common chickweed (Stellaria media); conditions: amount of applied herbicide 320 g/ha
In short: as §1

redroot pigweed [14] = test: Test Example 5: herbicidal effect by foliage application, plastic box (Table 20, symbol N); assay type: in vivo, redroot pigweed (Amaranthus retroflexus); conditions: foliage application, 320 g/ha, three weeks after application
In short: as §2

chickweed [15] = test: Test Example 5: herbicidal effect by foliage application, plastic box (Table 20, symbol P); assay type: in vivo, common chickweed (Stellaria media); conditions: foliage application, 320 g/ha, three weeks after application
In short: as §2

green foxtail [16] = test: Test Example 5: herbicidal effect by foliage application, plastic box (Table 20, symbol G); assay type: in vivo, green foxtail (Setaria viridis); conditions: foliage application, 320 g/ha, three weeks after application
In short: as §2

Italian ryegrass [17] = test: Test Example 5: herbicidal effect by foliage application, plastic box (Table 20, symbol K); assay type: in vivo, Italian ryegrass (Lolium multiflorum); conditions: foliage application, 320 g/ha, three weeks after application
In short: as §2

velvetleaf [18] = test: Test Example 4: herbicidal effect by soil treatment (Table 19, symbol M); assay type: in vivo, velvetleaf (Abutilon theophrasti); conditions: amount of applied herbicide 320 g/ha
In short: as §1

windgrass [19] = test: Test Example 5: herbicidal effect by foliage application, plastic box (Table 20, symbol L); assay type: in vivo, windgrass (Apera spica-venti); conditions: foliage application, 320 g/ha, three weeks after application
In short: as §2

velvetleaf [20] = test: Test Example 5: herbicidal effect by foliage application, plastic box (Table 20, symbol M); assay type: in vivo, velvetleaf (Abutilon theophrasti); conditions: foliage application, 320 g/ha, three weeks after application
In short: as §2

persian speedwell [21] = test: Test Example 4: herbicidal effect by soil treatment (Table 19, symbol R); assay type: in vivo, Persian speedwell (Veronica persica); conditions: amount of applied herbicide 320 g/ha
In short: as §1

Chinese sprangletop = test: Test Example 3: herbicidal effect by foliage application, Wagner pot (Table 18, symbol D); assay type: in vivo, chinese sprangletop (Leptochloa chinensis); conditions: 320 g/ha
In short: as §3

barnyard grass [22] = test: Test Example 5: herbicidal effect by foliage application, plastic box (Table 20, symbol H); assay type: in vivo, barnyard grass (Echinochloa crus-galli); conditions: foliage application, 320 g/ha, three weeks after application
In short: as §2

green foxtail [23] = test: Test Example 4: herbicidal effect by soil treatment (Table 19, symbol G); assay type: in vivo, green foxtail (Setaria viridis); conditions: amount of applied herbicide 320 g/ha
In short: as §1

persian speedwell [24] = test: Test Example 5: herbicidal effect by foliage application, plastic box (Table 20, symbol R); assay type: in vivo, Persian speedwell (Veronica persica); conditions: foliage application, 320 g/ha, three weeks after application
In short: as §2

wild oat [25] = test: Test Example 4: herbicidal effect by soil treatment (Table 19, symbol I); assay type: in vivo, wild oat (Avena fatua); conditions: amount of applied herbicide 320 g/ha
In short: as §1

lambsquarters [26] = test: Test Example 5: herbicidal effect by foliage application, plastic box (Table 20, symbol O); assay type: in vivo, lambsquarters (Chenopodium album); conditions: foliage application, 320 g/ha, three weeks after application
In short: as §2

rice flat sedge = test: Test Example 3: herbicidal effect by foliage application, Wagner pot (Table 18, symbol E); assay type: in vivo, rice flat sedge (Cyperus iria); conditions: 320 g/ha
In short: as §3

blackgrass [27] = test: Test Example 4: herbicidal effect by soil treatment (Table 19, symbol J); assay type: in vivo, blackgrass (Alopecurus myosuroides); conditions: amount of applied herbicide 320 g/ha
In short: as §1

## COc1ccc2c(-c3c(O)c(C)nn(C)c3=O)c(-c3ccccc3)sc2c1 [3-061]
Lambsquarters [1]
  O: lambsquarters, herbicidal effect grade: 2 (Herbicidal rate of 20% or more and less than 40%)
Barnyard grass [2]
  H: barnyard grass, herbicidal effect grade: 3 (Herbicidal rate of 40% or more and less than 70%)
Blackgrass [3]
  J: blackgrass, herbicidal effect grade: 3 (Herbicidal rate of 40% or more and less than 70%)
Italian ryegrass [4]
  K: Italian ryegrass, herbicidal effect grade: 0 (Herbicidal rate of 5% or less (almost no effect))
Redroot pigweed [5]
  N: redroot pigweed, herbicidal effect grade: 0 (Herbicidal rate of 5% or less (almost no effect))
Barnyard grass [6]
  herbicidal effect on barnyard grass (H): 2 (Herbicidal rate of 20% or more and less than 40%)
Southern crabgrass [7]
  F: southern crabgrass, herbicidal effect grade: 0 (Herbicidal rate of 5% or less (almost no effect))
False cleavers [8]
  Q: false cleavers, herbicidal effect grade: 4 (Herbicidal rate of 70% or more and less than 90%)
Windgrass [9]
  L: windgrass, herbicidal effect grade: 0 (Herbicidal rate of 5% or less (almost no effect))
Southern crabgrass [10]
  F: southern crabgrass, herbicidal effect grade: 0 (Herbicidal rate of 5% or less (almost no effect))
Wild oat [11]
  I: wild oat, herbicidal effect grade: 4 (Herbicidal rate of 70% or more and less than 90%)
False cleavers [12]
  Q: false cleavers, herbicidal effect grade: 2 (Herbicidal rate of 20% or more and less than 40%)
Chickweed [13]
  P: chickweed, herbicidal effect grade: 3 (Herbicidal rate of 40% or more and less than 70%)
Redroot pigweed [14]
  N: redroot pigweed, herbicidal effect grade: 4 (Herbicidal rate of 70% or more and less than 90%)
Chickweed [15]
  P: chickweed, herbicidal effect grade: 5 (Herbicidal rate of 90% or more (almost completely withered))
Green foxtail [16]
  G: green foxtail, herbicidal effect grade: 0 (Herbicidal rate of 5% or less (almost no effect))
Italian ryegrass [17]
  K: Italian ryegrass, herbicidal effect grade: 3 (Herbicidal rate of 40% or more and less than 70%)
Velvetleaf [18]
  M: velvetleaf, herbicidal effect grade: 0 (Herbicidal rate of 5% or less (almost no effect))
Windgrass [19]
  L: windgrass, herbicidal effect grade: 3 (Herbicidal rate of 40% or more and less than 70%)
Velvetleaf [20]
  M: velvetleaf, herbicidal effect grade: 5 (Herbicidal rate of 90% or more (almost completely withered))
Persian speedwell [21]
  R: persian speedwell, herbicidal effect grade: 4 (Herbicidal rate of 70% or more and less than 90%)
Chinese sprangletop
  herbicidal effect on Chinese sprangletop (D): 3 (Herbicidal rate of 40% or more and less than 70%)
Barnyard grass [22]
  H: barnyard grass, herbicidal effect grade: 0 (Herbicidal rate of 5% or less (almost no effect))
Green foxtail [23]
  G: green foxtail, herbicidal effect grade: 4 (Herbicidal rate of 70% or more and less than 90%)
Persian speedwell [24]
  R: persian speedwell, herbicidal effect grade: 5 (Herbicidal rate of 90% or more (almost completely withered))
Wild oat [25]
  I: wild oat, herbicidal effect grade: 2 (Herbicidal rate of 20% or more and less than 40%)
Lambsquarters [26]
  O: lambsquarters, herbicidal effect grade: 4 (Herbicidal rate of 70% or more and less than 90%)
Rice flat sedge
  herbicidal effect on rice flat sedge (E): 5 (Herbicidal rate of 90% or more (almost completely withered))

## Cc1nn(C)c(=O)c(-c2c(-c3ccccc3C(F)(F)F)sc3ccccc23)c1O [1-007]
Lambsquarters [1]
  herbicidal effect rating, O: lambsquarters: 0 (Herbicidal rate of 5% or less (almost no effect))
Barnyard grass [2]
  herbicidal effect rating, H: barnyard grass: 0 (Herbicidal rate of 5% or less (almost no effect))
Blackgrass [3]
  herbicidal effect grade, J: blackgrass: 0 (Herbicidal rate of 5% or less (almost no effect))
Italian ryegrass [4]
  herbicidal effect rating, K: Italian ryegrass: 0 (Herbicidal rate of 5% or less (almost no effect))
Redroot pigweed [5]
  herbicidal effect rating, N: redroot pigweed: 0 (Herbicidal rate of 5% or less (almost no effect))
Barnyard grass [6]
  herbicidal effect on H (barnyard grass), rating 0-5: 5 (Herbicidal rate of 90% or more (almost completely withered))
Southern crabgrass [7]
  herbicidal effect grade, F: southern crabgrass: 3 (Herbicidal rate of 40% or more and less than 70%)
False cleavers [8]
  herbicidal effect grade, Q: false cleavers: 5 (Herbicidal rate of 90% or more (almost completely withered))
Southern crabgrass [10]
  herbicidal effect rating, F: southern crabgrass: 0 (Herbicidal rate of 5% or less (almost no effect))
Wild oat [11]
  herbicidal effect grade, I: wild oat: 3 (Herbicidal rate of 40% or more and less than 70%)
False cleavers [12]
  herbicidal effect rating, Q: false cleavers: 0 (Herbicidal rate of 5% or less (almost no effect))
Chickweed [13]
  herbicidal effect rating, P: chickweed: 3 (Herbicidal rate of 40% or more and less than 70%)
Blackgrass [27]
  herbicidal effect rating, J: blackgrass: 0 (Herbicidal rate of 5% or less (almost no effect))
Redroot pigweed [14]
  herbicidal effect grade, N: redroot pigweed: 5 (Herbicidal rate of 90% or more (almost completely withered))
Chickweed [15]
  herbicidal effect grade, P: chickweed: 5 (Herbicidal rate of 90% or more (almost completely withered))
Green foxtail [16]
  herbicidal effect grade, G: green foxtail: 5 (Herbicidal rate of 90% or more (almost completely withered))
Italian ryegrass [17]
  herbicidal effect grade, K: Italian ryegrass: 3 (Herbicidal rate of 40% or more and less than 70%)
Velvetleaf [18]
  herbicidal effect rating, M: velvetleaf: 0 (Herbicidal rate of 5% or less (almost no effect))
Windgrass [19]
  herbicidal effect grade, L: windgrass: 5 (Herbicidal rate of 90% or more (almost completely withered))
Velvetleaf [20]
  herbicidal effect grade, M: velvetleaf: 5 (Herbicidal rate of 90% or more (almost completely withered))
Persian speedwell [21]
  herbicidal effect rating, R: persian speedwell: 0 (Herbicidal rate of 5% or less (almost no effect))
Chinese sprangletop
  herbicidal effect on D (Chinese sprangletop), rating 0-5: 5 (Herbicidal rate of 90% or more (almost completely withered))
Barnyard grass [22]
  herbicidal effect grade, H: barnyard grass: 3 (Herbicidal rate of 40% or more and less than 70%)
Green foxtail [23]
  herbicidal effect rating, G: green foxtail: 0 (Herbicidal rate of 5% or less (almost no effect))
Persian speedwell [24]
  herbicidal effect grade, R: persian speedwell: 5 (Herbicidal rate of 90% or more (almost completely withered))
Wild oat [25]
  herbicidal effect rating, I: wild oat: 3 (Herbicidal rate of 40% or more and less than 70%)
Lambsquarters [26]
  herbicidal effect grade, O: lambsquarters: 5 (Herbicidal rate of 90% or more (almost completely withered))
Rice flat sedge
  herbicidal effect on E (rice flat sedge), rating 0-5: 4 (Herbicidal rate of 70% or more and less than 90%)
